Assay results: the supplement of paper PMC11061612

Tests used:
Assay in all cases: combination Emax (second highest fraction inhibited in the dose matrix, 72 h); higher = more inhibition; extreme values may be limits of the assay
[1] = tested on: RT-112 (Bladder Carcinoma)
Method in brief: (§1)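 Bliss excess equals the observed combination effect minus the expected value EA + EB − EA·EB, where EA and EB are the effects of each agent alone. Combination Emax is the second-highest inhibition within the matrix. Inhibition was scaled from CellTiter-Glo 2.0 luminescence, with 0 set by vehicle wells and 1 by blank wells, after 72 hours of two-drug dosing of cells plated in 1536-well plates.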

[2] = tested on: HO-1-u-1 (Oral Cavity Carcinoma)
Method in brief: as §1

[3] = tested on: HDLM-2 (Hodgkin's Lymphoma)
Method in brief: as §1

[4] = tested on: CAL-54 (Kidney Carcinoma)
Method in brief: as §1

[5] = tested on: SW1116 (Colorectal Carcinoma)
Method in brief: as §1

[6] = tested on: NCI-H2795 (Mesothelioma)
Method in brief: as §1

[7] = tested on: NB14 (Neuroblastoma)
Method in brief: as §1

[8] = tested on: KYSE-410 (Esophageal Squamous Cell Carcinoma)
Method in brief: as §1

[9] = tested on: RPMI-6666 (Non-Cancerous)
Method in brief: as §1

[10] = tested on: OVCAR-8 (Ovarian Carcinoma)
Method in brief: as §1

[11] = tested on: MDA-MB-468 (Breast Carcinoma)
Method in brief: as §1

[12] = tested on: CAL-51 (Breast Carcinoma)
Method in brief: as §1

[13] = tested on: NCI-H69 (Small Cell Lung Carcinoma)
Method in brief: as §1

[14] = tested on: OC-314 (Ovarian Carcinoma)
Method in brief: as §1

[15] = tested on: HARA (Squamous Cell Lung Carcinoma)
Method in brief: as §1

[16] = tested on: LoVo (Colorectal Carcinoma)
Method in brief: as §1

[17] = tested on: UMC-11 (Other Solid Carcinomas)
Method in brief: as §1

[18] = tested on: SW1271 (Small Cell Lung Carcinoma)
Method in brief: as §1

[19] = tested on: HCC-15 (Squamous Cell Lung Carcinoma)
Method in brief: as §1

[20] = tested on: K5 (Thyroid Gland Carcinoma)
Method in brief: as §1

Row | Structure (SMILES) | combination Emax [1] | combination Emax [2] | combination Emax [3] | combination Emax [4] | combination Emax [5] | combination Emax [6] | combination Emax [7] | combination Emax [8] | combination Emax [9] | combination Emax [10] | combination Emax [11] | combination Emax [12] | combination Emax [13] | combination Emax [14] | combination Emax [15] | combination Emax [16] | combination Emax [17] | combination Emax [18] | combination Emax [19] | combination Emax [20]
1 | Cc1c2c(nn1C)CSCc1cc(n(C)n1)CSc1cc(c3ccccc3c1)OCCCc1c(C(=O)O)n(C)c3c-2c(Cl)ccc13 [AZD5991] + C1CN(CCC1(C(=O)N[C@@H](CCO)C2=CC=C(C=C2)Cl)N)C3=NC=NC4=C3C=CN4 [Capivasertib] (first compound max 1 µM, 7x7, partner max 3 µM) | 0.858 | 0.837 | 1 | 0.351 | 0.102 | 0.85 | 0.89 | 0.174 | 0.7 | 0.169 | 0.585 | 0.792 | 0.405 | 0.297 | 0.58 | 0.625 | 0.29 | 0.216 | 0.227 | 0.478
2 | COc1cccc(OCCCN)c1-c1cc(Nc2cnc(C#N)cn2)n[nH]1 [Prexasertib] + CN(C)CCCOc1ccc(-c2ccc3ncc4c(c3c2)n(C2CCOCC2)c(=O)n4C)cn1 [AZD0156] (first compound max 1 µM, 7x7, partner max 1 µM) | 0.975 | 0.975 | 0.512 | 0.863 | 0.516 | 0.789 | 1 | 0.483 | 0.977 | 0.988 | 0.492 | 0.946 | 0.582 | 0.962 | 0.986 | 0.896 | 0.902 | 0.678 | 0.187 | 0.767
3 | CC(=O)Nc1cccc(-n2c(=O)n(C3CC3)c(=O)c3c(Nc4ccc(I)cc4F)n(C)c(=O)c(C)c32)c1 [Trametinib] + Cc1nc(-c2cn3c(n2)-c2ccc(-c4cnn(C(C)(C)C(N)=O)c4)cc2OCC3)n(C(C)C)n1 [Taselisib] (first compound max 1 µM, 7x7, partner max 10 µM) | 0.884 | 0.987 | 0.362 | 0.763 | 0.866 | 1 | 0.822 | 0.993 | 0.675 | 0.594 | 0.799 | 0.886 | 0.688 | 0.707 | 0.818 | 0.708 | 0.355 | 0.653 | 0.987 | 1
4 | CN(CCO)CC[C@H](CSc1ccccc1)Nc1ccc(S(=O)(=O)NC(=O)c2ccc(N3CCC([C@@H](O)c4ccccc4-c4ccc(Cl)cc4)CC3)cc2)cc1S(=O)(=O)C(F)(F)F [AZD4320] + Cc1cc2ncnn2cc1Nc1ncc2c(n1)n(C1CCOCC1)c(=O)n2C [AZD7648] (first compound max 1 µM, 7x7, partner max 10 µM) | 0.293 | 0.325 | 0.895 | 0.372 | 0.117 | 0.43 | 0.966 | 0.134 | 0.898 | 0.14 | 0.747 | 0.193 | 0.882 | 0.22 | 0.244 | 0.565 | 0.712 | 0.216 | 0.936 | 0.392
5 | COc1cccc(OCCCN)c1-c1cc(Nc2cnc(C#N)cn2)n[nH]1 [Prexasertib] + O=C(c1cc(Cc2n[nH]c(=O)c3ccccc23)ccc1F)N1CCN(C(=O)C2CC2)CC1 [Olaparib] (first compound max 1 µM, 7x7, partner max 10 µM) | 0.797 | 0.936 | 0.626 | 0.792 | 0.565 | 0.674 | 0.986 | 0.382 | 0.959 | 0.966 | 0.603 | 0.86 | 0.696 | 0.971 | 0.964 | 0.798 | 0.902 | 0.686 | 0.284 | 0.634
6 | CN(C)CCCOc1ccc(-c2ccc3ncc4c(c3c2)n(C2CCOCC2)c(=O)n4C)cn1 [AZD0156] + O=C(c1cc(Cc2n[nH]c(=O)c3ccccc23)ccc1F)N1CCN(C(=O)C2CC2)CC1 [Olaparib] (first compound max 3 µM, partner max 3 µM) | 0.228 | 0.408 | 0.207 | 0.369 | 0.206 | 0.384 | 0.611 | 0.172 | 0.458 | 0.316 | 0.392 | 0.296 | 0.354 | 0.497 | 0.411 | 0.693 | 0.246 | 0.351 | 0.371 | 0.314
7 | Cc1cc2ncnn2cc1Nc1ncc2c(n1)n(C1CCOCC1)c(=O)n2C [AZD7648] + O=C(c1cc(Cc2n[nH]c(=O)c3ccccc23)ccc1F)N1CCN(C(=O)C2CC2)CC1 [Olaparib] (first compound max 10 µM, 7x7, partner max 10 µM) | 0.143 | 0.261 | 0.155 | 0.218 | 0.0602 | 0.421 | 0.508 | 0.141 | 0.584 | 0.344 | 0.242 | 0.265 | 0.337 | 0.24 | 0.314 | 0.533 | 0.244 | 0.24 | 0.129 | 0.421
8 | Cc1cc2ncnn2cc1Nc1ncc2c(n1)n(C1CCOCC1)c(=O)n2C [AZD7648] + C=CCn1c(=O)c2cnc(Nc3ccc(N4CCN(C)CC4)cc3)nc2n1-c1cccc(C(C)(C)O)n1 [AZD1775] (first compound max 10 µM, partner max 1 µM) | 0.742 | 0.617 | 0.585 | 0.755 | 0.295 | 0.602 | 0.998 | 0.361 | 0.892 | 0.81 | 0.526 | 0.864 | 0.389 | 0.567 | 0.797 | 0.732 | 0.424 | 0.633 | 0.345 | 0.665
9 | CN(C)CCCOc1ccc(-c2ccc3ncc4c(c3c2)n(C2CCOCC2)c(=O)n4C)cn1 [AZD0156] + C[C@@H]1COCCN1C2=NC(=NC(=C2)C3(CC3)[S@](=N)(=O)C)C4=C5C=CNC5=NC=C4 [AZD6738] (first compound max 1 µM, 7x7, partner max 10 µM) | 0.919 | 0.943 | 0.376 | 0.65 | 0.28 | 0.7 | 0.979 | 0.297 | 0.861 | 0.88 | 0.527 | 0.95 | 0.448 | 0.869 | 0.908 | 0.867 | 0.642 | 0.595 | 0.146 | 0.753
10 | CN(CCO)CC[C@H](CSc1ccccc1)Nc1ccc(S(=O)(=O)NC(=O)c2ccc(N3CCC([C@@H](O)c4ccccc4-c4ccc(Cl)cc4)CC3)cc2)cc1S(=O)(=O)C(F)(F)F [AZD4320] + C=CCn1c(=O)c2cnc(Nc3ccc(N4CCN(C)CC4)cc3)nc2n1-c1cccc(C(C)(C)O)n1 [AZD1775] (first compound max 1 µM, partner max 1 µM) | 0.744 | 0.897 | 0.989 | 0.827 | 0.264 | 0.53 | 1 | 0.796 | 1 | 0.908 | 0.799 | 0.907 | 0.858 | 0.619 | 0.887 | 0.838 | 0.632 | 0.814 | 0.946 | 0.485
11 | CC1(C)CCC(CN2CCN(c3ccc(C(=O)NS(=O)(=O)c4ccc(NCC5CCOCC5)c([N+](=O)[O-])c4)c(Oc4cnc5[nH]ccc5c4)c3)CC2)=C(c2ccc(Cl)cc2)C1 [Venetoclax] + CN(C)CCCOc1ccc(-c2ccc3ncc4c(c3c2)n(C2CCOCC2)c(=O)n4C)cn1 [AZD0156] (first compound max 1 µM, 7x7, partner max 1 µM) | 0.243 | 0.413 | 0.362 | 0.239 | 0.103 | 0.46 | 0.98 | 0.172 | 0.976 | 0.219 | 0.377 | 0.242 | 0.548 | 0.316 | 0.651 | 0.283 | 0.269 | 0.207 | 0.215 | 0.374
12 | CN(CCO)CC[C@H](CSc1ccccc1)Nc1ccc(S(=O)(=O)NC(=O)c2ccc(N3CCC([C@@H](O)c4ccccc4-c4ccc(Cl)cc4)CC3)cc2)cc1S(=O)(=O)C(F)(F)F [AZD4320] + C1CN(CCC1(C(=O)N[C@@H](CCO)C2=CC=C(C=C2)Cl)N)C3=NC=NC4=C3C=CN4 [Capivasertib] (first compound max 1 µM, 7x7, partner max 3 µM) | 0.147 | 0.744 | 0.841 | 0.338 | 0.139 | 0.271 | 0.947 | 0.0467 | 0.916 | 0.146 | 0.821 | 0.504 | 0.892 | 0.261 | 0.298 | 0.633 | 0.508 | 0.158 | 0.923 | 0.499
